Where “and” joins values, the source holds several entries; their conditions need not be identical. Identical values can stand only once.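 Dose response: 5 concentrations. Exposure: 48 h. Format: 96-well plates. Endpoint: linear interpolation; highest concentration if not reached. GI50: concentration for 50% inhibition of growth. Definition used: TGI = concentration required for complete inhibition of growth.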
Experiments:
Assay in all cases: NCI anticancer screen, dose series, 48 h
K-562 leukemia = tested on: K-562 leukemia
SNB-75 CNS = tested on: SNB-75 CNS
HCT-116 colon = tested on: HCT-116 colon
BT-549 breast = tested on: BT-549 breast
KM12 colon = tested on: KM12 colon
SK-MEL-28 melanoma = tested on: SK-MEL-28 melanoma
A498 renal = tested on: A498 renal
HCC-2998 colon = tested on: HCC-2998 colon
HOP-62 NSCLC = tested on: HOP-62 NSCLC
NCI/ADR-RES ovarian = tested on: NCI/ADR-RES ovarian

Row | SMILES | GI50 (K-562 leukemia) | TGI (K-562 leukemia) | GI50 (SNB-75 CNS) [µM] | TGI (SNB-75 CNS) [µM] | GI50 (HCT-116 colon) | TGI (HCT-116 colon) | GI50 (BT-549 breast) [µM] | TGI (BT-549 breast) [µM] | GI50 (KM12 colon) | TGI (KM12 colon) | GI50 (SK-MEL-28 melanoma) | TGI (SK-MEL-28 melanoma) | GI50 (A498 renal) [µM] | TGI (A498 renal) [µM] | GI50 (HCC-2998 colon) | TGI (HCC-2998 colon) | GI50 (HOP-62 NSCLC) | TGI (HOP-62 NSCLC) | GI50 (NCI/ADR-RES ovarian) | TGI (NCI/ADR-RES ovarian)
1 | CN(C)CCCC(=O)Nc1ccc(Cn2nnc3c2C(=O)c2nnn(Cc4ccc(NC(=O)CCCN(C)C)cc4)c2C3=O)cc1 | 5.45 µM | 55.9 µM | 1.69 | 3.06 | 3.03 µM | 11.6 µM | 13.8 | 29.8 | 7.54 µM | 22.7 µM | 4.55 µM | 20.3 µM | 16 | 45.3 | 2.43 µM | 5.22 µM | 17.2 µM | 32.8 µM | > 100 µM | > 100 µM
2 | COc1ccc(Cn2cc(Cn3c(=O)c(-c4nc5ccccc5[nH]4)cc4ccccc43)nn2)c(OC)c1OC | 0.162 µM and 0.191 µM | 50 µM and > 100 µM | 0.0354 | 0.432 | 0.094 µM and 0.0954 µM | 1.25 µM and 1.73 µM | 0.502 | 1.52 | 0.226 µM and 0.186 µM | 1.39 µM and 1.48 µM | 0.539 µM and 0.912 µM | 1.66 µM and 4.61 µM | 0.118 | 0.607 | 0.174 µM and 0.291 µM | 1.2 µM and 2.07 µM | 0.179 µM and 0.525 µM | 0.938 µM and 3.87 µM | 1.1 µM and 1.83 µM | 3.96 µM and 15.8 µM
3 | C[C@@]12CCC[C@@](C)(C(=O)O)C1CC[C@@]13CC(=O)[C@@](CO)(CCC12)C3 (stereo not given in full) | > 100 µM | > 100 µM | > 100 | > 100 | > 100 µM | > 100 µM | > 100 | > 100 | > 100 µM | > 100 µM | > 100 µM | > 100 µM | > 100 | > 100 | > 100 µM | > 100 µM | > 100 µM | > 100 µM | > 100 µM | > 100 µM
4 | CC1(C)CC[C@]2(C(=O)O)CC[C@]3(C)[C@H](CC[C@@H]4[C@@]5(C)CCC(=O)C(C)(C)[C@@H]5CC[C@]43C)[C@H]2[C@H]1OC(=O)C(F)(F)F | 3.61 µM | 20.9 µM | 26.4 | > 100 | 4.8 µM | 17.8 µM | 9.3 | 22.3 | 10.4 µM | 24.4 µM | 13.6 µM | 28.2 µM | 15.7 | 30.9 | 10.7 µM | 22.8 µM | 13.2 µM | 27.8 µM | 12.3 µM | 26.2 µM
5 | O=C1C=C(Nc2nc(C(=O)O)cc(=O)[nH]2)c2ccccc2C1=O |  | > 100 µM |  | > 100 |  | > 100 µM |  | > 100 |  | > 100 µM |  | > 100 µM |  | > 100 |  | > 100 µM |  | > 100 µM |  | > 100 µM
6 | O=C1C(=O)c2c(nc3ncccn23)-c2ccccc21 | 0.219 µM | 2.75 µM | 0.378 | 0.793 | 0.184 µM | 0.379 µM | 0.154 | 0.291 | 0.678 µM | 1.9 µM | 0.21 µM | 0.41 µM | 0.484 | 1.28 | 0.408 µM | 0.935 µM | 0.296 µM | 1.05 µM | 0.301 µM | 0.962 µM
7 | CC(C)CC(=O)CC(O)C(Cl)(Cl)Cl (stereo not given) |  | > 100 µM |  | > 100 |  | > 100 µM |  | > 100 |  | > 100 µM |  | > 100 µM |  | > 100 |  | > 100 µM |  | > 100 µM |  | > 100 µM
8 | COc1ccc(-c2[nH]ncc2-c2cc(OC)c(OC)c(OC)c2)cc1 | < 0.01 µM | > 34.4 µM | < 0.01 | 21 | < 0.01 µM | 12.2 µM | 0.0143 | 4.45 | < 0.01 µM | 13.1 µM | < 0.0185 µM | 33.6 µM | < 0.01 | < 0.0127 | 0.0147 µM | 19.2 µM | < 0.01 µM | > 100 µM | < 0.01 µM | 1.93 µM
9 | COc1ccc2sc3c(NCCCNCCO)nc4ccccc4c3c(=O)c2c1 | 1.83 µM | 4.32 µM | 1.82 | 3.34 | 1.59 µM | 3.03 µM | 10.2 | 22.7 | 1.62 µM | 3.12 µM | 1.8 µM | 3.27 µM | 1.49 | 2.97 | 1.68 µM | 3.29 µM | 1.59 µM | 3.26 µM | 1.76 µM | 3.53 µM
10 | N#CC(=S)Nc1ccc(F)cc1 |  | > 100 µM |  | > 100 |  | > 100 µM |  | > 100 |  | > 100 µM |  | > 100 µM |  | 90.5 |  | > 100 µM |  | > 100 µM |  | > 100 µM
11 | CCOC(=O)c1cnc2c(cnn2CC)c1NN=C(C)C | 59.6 µM | > 100 µM | 36.6 | > 100 | 47.1 µM | > 100 µM | 46.5 | > 100 | 67.1 µM | > 100 µM | > 100 µM | > 100 µM | 28.1 | > 100 | > 100 µM | > 100 µM | 65.9 µM | > 100 µM | 38 µM | > 100 µM
12 | Cc1nc2ccc(NCCN(C)C)c3c(=O)c4cc(O)ccc4n1c23 |  | 4.25 µM |  | 5.63 |  | 2.22 µM |  | 19 |  | 4.09 µM |  | 11.7 µM |  | 4.93 |  | 1.71 µM |  | 11.1 µM |  | 7.29 µM
13 | Cc1[nH]nc(C(=O)Nc2n[nH]c3ccccc23)c1[N+](=O)[O-] | > 100 µM | > 100 µM | 64.1 | > 100 | > 100 µM | > 100 µM | 26.5 | > 100 | > 100 µM | > 100 µM | > 100 µM | > 100 µM | > 76.6 | > 100 | > 100 µM | > 100 µM | > 100 µM | > 100 µM | > 100 µM | > 100 µM
14 | Oc1ccc(-c2nc3ccc4[nH]ncc4c3c3c2CCCC3)c2cccnc12 | 0.139 µM | 33.3 µM | 0.132 | 1.06 | 0.228 µM | 4.14 µM | 0.421 | 2.58 | 0.311 µM | 7.93 µM | 0.498 µM | 8.61 µM | 0.779 | 2.19 | 0.319 µM | 5.45 µM | 0.16 µM | 1.71 µM | 0.167 µM | 4.61 µM
15 | C=C1C(=O)O[C@H]2[C@H]1CC/C(COC(=O)C(=O)c1cn(C)c3ccc(OC)cc13)=C\CC[C@@]1(C)O[C@@H]21 | 5.97 µM | > 61.3 µM | 6.69 | 11.8 | 3.61 µM | 7.38 µM | 1.75 | 3.28 | 6.41 µM | 13.3 µM | 3.14 µM | 8.49 µM | 6.77 | 10.1 | 5.14 µM | 9.72 µM | 6.46 µM | 11.9 µM | 4.97 µM | 25.8 µM
16 | Oc1ccc(SCc2ccc(NCc3ccccc3)cc2)cc1 |  | > 100 µM |  | 67.2 |  | > 100 µM |  | > 100 |  | > 100 µM |  | > 100 µM |  | 88 |  | 94.7 µM |  | > 100 µM |  | > 100 µM
17 | CCc1nc(N)nc(N)c1-c1ccc(Cl)c(N=NN(C)C)c1 |  | > 65 µM |  | > 100 |  | > 75.1 µM |  | > 94.8 |  | > 97.3 µM |  | > 75.5 µM |  | > 100 |  | 62.9 µM |  | > 73.9 µM |  | > 100 µM
18 | CC12CCC(O)CC1CCC1C2CCC2(C)C(C3=CC(=O)OC3)CCC12 (stereo not given) | > 100 µM | > 100 µM | 6.9 | 21.2 | 25.5 µM | > 100 µM | 11.2 | > 95.3 | > 100 µM | > 100 µM | 28.2 µM | > 100 µM | 1.5 | 10.4 | > 100 µM | > 100 µM | 9.53 µM | 44.9 µM | 27 µM | > 100 µM
19 | COc1ccc2c(c1)C(=O)c1c-2n(CCCCl)c(=O)c2cc(N(C)C)ccc12 | > 100 µM | > 100 µM | 21.3 | 69.2 | 43.9 µM | > 100 µM | 26 | > 100 | 3.56 µM | > 100 µM | > 100 µM | > 100 µM | 95.6 | > 100 | > 100 µM | > 100 µM | 26.6 µM | 69 µM | > 100 µM | > 100 µM
